Activity calls are given as the source filed them.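 The calls were made as follows: active = IC50 of 10 µM or lower; inactive = IC50 above 10 µM.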

As usually defined, the IC50 is the concentration needed to halve the response being measured.

For the experiment, the target named is Mitogen-activated protein kinase kinase kinase 5 (Homo sapiens) (UniProt Q99683). Briefly: ASK1 kinase inhibitor potency, dose response, biochemical, AlphaScreen, MKK6 phosphorylation (AID 1159605).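 Also: ASK1 phosphorylation of MKK6 substrate detected with anti-phospho-MKK6 antibody beads; inhibitors lower the luminescent signal by blocking MKK6 phosphorylation.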 Conditions: AlphaScreen luminescence. (Bead proximity is the source of the signal in Alpha formats.)
Chain of Mitogen-activated protein kinase kinase kinase 5 (Homo sapiens) (Q99683 whole entry, looked up): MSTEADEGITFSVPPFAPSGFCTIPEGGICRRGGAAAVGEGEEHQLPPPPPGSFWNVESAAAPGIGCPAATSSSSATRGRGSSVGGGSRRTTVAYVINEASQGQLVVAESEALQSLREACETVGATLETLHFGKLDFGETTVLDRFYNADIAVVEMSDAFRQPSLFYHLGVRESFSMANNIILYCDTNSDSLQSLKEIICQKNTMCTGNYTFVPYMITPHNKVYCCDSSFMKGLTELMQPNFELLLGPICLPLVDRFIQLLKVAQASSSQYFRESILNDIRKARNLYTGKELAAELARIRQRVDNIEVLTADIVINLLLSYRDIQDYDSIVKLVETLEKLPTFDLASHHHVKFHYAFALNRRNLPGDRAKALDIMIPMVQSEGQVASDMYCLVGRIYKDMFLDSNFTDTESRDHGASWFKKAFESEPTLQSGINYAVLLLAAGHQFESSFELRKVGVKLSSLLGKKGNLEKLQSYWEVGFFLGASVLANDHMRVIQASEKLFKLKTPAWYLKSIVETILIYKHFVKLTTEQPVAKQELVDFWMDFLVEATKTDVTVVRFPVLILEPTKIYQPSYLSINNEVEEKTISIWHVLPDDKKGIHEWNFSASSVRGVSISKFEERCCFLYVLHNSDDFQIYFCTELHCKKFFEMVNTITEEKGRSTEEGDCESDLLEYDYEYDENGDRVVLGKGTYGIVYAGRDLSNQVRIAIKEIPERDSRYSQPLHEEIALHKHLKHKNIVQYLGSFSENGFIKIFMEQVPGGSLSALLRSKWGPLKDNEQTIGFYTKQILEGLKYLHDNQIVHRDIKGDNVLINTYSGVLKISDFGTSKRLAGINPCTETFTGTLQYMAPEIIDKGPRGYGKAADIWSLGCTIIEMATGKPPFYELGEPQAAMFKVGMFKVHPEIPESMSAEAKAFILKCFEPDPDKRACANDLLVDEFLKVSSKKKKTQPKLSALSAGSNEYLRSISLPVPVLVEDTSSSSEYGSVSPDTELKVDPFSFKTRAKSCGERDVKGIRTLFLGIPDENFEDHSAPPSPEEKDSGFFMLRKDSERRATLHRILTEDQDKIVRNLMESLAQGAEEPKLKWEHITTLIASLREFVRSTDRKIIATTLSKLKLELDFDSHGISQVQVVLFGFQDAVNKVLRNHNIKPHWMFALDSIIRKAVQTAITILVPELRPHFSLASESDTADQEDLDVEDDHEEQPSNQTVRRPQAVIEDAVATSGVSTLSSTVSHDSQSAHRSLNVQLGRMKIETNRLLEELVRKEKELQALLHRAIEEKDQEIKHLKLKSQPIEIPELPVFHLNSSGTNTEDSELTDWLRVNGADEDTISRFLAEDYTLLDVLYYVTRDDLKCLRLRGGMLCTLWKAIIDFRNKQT
`CC(C)n1cnc2c(Nc3ccc(N4CCOCC4)cc3)nc(N3CCN(c4ccccn4)CC3)nc21`: the IC50 result is “inactive”.
`c1ccc(OCCNc2nc(Nc3ccc(-n4ccnc4)cc3)nc3c2ncn3C2CCCCC2)cc1`: the IC50 entry was “inactive”.
Then `COc1cc2nc(Nc3ccc(N4CCOCC4)cc3)nc(NCCOc3ccccc3)c2cc1OC`, with “inactive”; and `Cc1cnc(-c2cccc(N)c2)nc1Nc1ccc(N2CCOCC2)cc1`, with “inactive”; and `Cn1cc(-c2ccc3cnc(Nc4ccc(-n5cnc(N6CCOCC6)n5)cc4)nc3c2)cn1`, with > 19.2 µM (inactive).
With `NC(=O)c1ccc(-c2nc(NCc3cccc(C(F)(F)F)c3)c3ncn(Cc4ccc(C(F)(F)F)cc4)c3n2)cc1`, the IC50 is > 17.3 µM (inactive).
To `Fc1ccc(-c2c(-c3ccnc(Nc4ccc(N5CCOCC5)cc4)c3)noc2NCc2ccccc2)cc1` belongs > 19.2 µM (inactive).
To `CC(C)CNC(=O)c1ccc2c(c1)CC(c1nc3ncc(-c4ccnc(N)n4)cc3[nH]1)CO2` (stereo unspecified) belongs > 19.2 µM (inactive); to `Cn1cc(-c2ccc3cnc(Nc4ccc(-c5ccc(N6CCOCC6)nc5)cc4)nc3c2Cl)cn1`, > 19.2 µM (inactive); to `Cc1cc(NCc2cccc(C(F)(F)F)c2)nc(Nc2ccc(N3CCOCC3)cc2)n1`, 6.57 µM.
Then `COc1cc2nc(Nc3cccc(N(C)C)c3)nc(NCc3cccc(C(F)(F)F)c3)c2cc1OC`, with > 18.9 µM (inactive); and `O=C(Nc1ccc(-c2ncnc3[nH]ccc23)cc1)C1COc2ccccc2O1` (stereo unspecified), with > 19.2 µM (inactive).
Turning to `CC(C)n1cnc2c(Nc3ccc4c(c3)OCO4)nc(NCc3ccc4c(c3)OCO4)nc21`, the IC50 result was “inactive”.
Then `CN(C)c1cccc(Nc2cc(Nc3ccccc3)ncn2)c1`, with > 22.2 µM (inactive).
To `CN(C)c1cc(F)cc(-c2ccnc(Nc3ccc(-n4cnc(N5CCC(O)CC5)n4)cc3)n2)c1` belongs > 19.2 µM (inactive); to `COc1ccc(CCNc2nc(Nc3ccc(N4CCOCC4)cc3)nc3c2ncn3Cc2ccc(C(F)(F)F)cc2)cc1`, 5.3 µM; to `Cc1nc(C)n(-c2ccc(Nc3nccc(-c4cccc(-n5nccn5)c4)n3)cc2)n1`, > 19.2 µM (inactive).
Then `COc1cc2nc(Nc3cccc(N(C)C)c3)nc(Nc3ccc4c(c3)OCO4)c2cc1OC`, with 6.21 µM; and `O=C(NCCN1CCOCC1)c1cccc(-n2ncc3cc(Nc4c(F)cccc4[N+](=O)[O-])ccc32)c1`, with > 19.2 µM (inactive); and `COc1cc2nc(Nc3ccc(-n4ccnc4)cc3)nc(Nc3ccc4c(c3)OCO4)c2cc1OC`, with > 20 µM (inactive).
As for `COc1ccc(CCNc2ccnc(Nc3cccc(N(C)C)c3)n2)cc1`, the concentration for half-maximal inhibition (IC50) is 7.76 µM.
Turning to `c1cc(-c2ccc3[nH]ncc3c2)nc(Nc2ccc(N3CCOCC3)cc2)n1`, the IC50 is > 19.2 µM (inactive).
To `Cc1cc(NCCc2ccc(O)cc2)nc(N2CCN(Cc3ccc4c(c3)OCO4)CC2)n1` belongs > 18.1 µM (inactive); to `COc1cc(Nc2nc(-c3ccc(C(N)=O)cc3)ncc2C)cc(OC)c1OC`, “inactive”; to `O=C(Cc1cn(-c2ccc(N3CCN(Cc4ccc5c(c4)OCO5)CC3)nn2)c2ccccc12)Nc1ccc(N2CCOCC2)cc1`, > 20 µM (inactive).
As to `COc1cc(Nc2nc(Nc3ccc(N4CCOCC4)cc3)c3ncn(Cc4ccc(C(F)(F)F)cc4)c3n2)cc(OC)c1OC`, the IC50 result is “inactive”.
To `FC(F)(F)c1ccc(Cn2cnc3c(Nc4ccc5c(c4)OCO5)nc(NC4CCN(Cc5ccccc5)CC4)nc32)cc1` belongs > 20.5 µM (inactive); to `c1ccc(-c2ncn[nH]2)c(Nc2ccnc(Nc3ccc(N4CCOCC4)cc3)c2)c1`, > 19.2 µM (inactive).
Then `c1ccc(CN2CCC(Nc3nc(Nc4ccc(N5CCOCC5)cc4)nc4c3ncn4C3CCCCC3)CC2)cc1`, with 7.91 µM; and `COc1cc2nc(Nc3ccc(N4CCOCC4)cc3)nc(NCc3ccccc3)c2cc1OC`, with > 20 µM (inactive); and `Nc1nc(Nc2ccc(N3CCOCC3)cc2)cc(Nc2ccc3c(c2)OCO3)n1`, with > 16.8 µM (inactive).
To `FC(F)(F)c1ccc(Cn2cnc3c(Nc4ccc(N5CCOCC5)cc4)nc(N4CCN(Cc5ccc6c(c5)OCO6)CC4)nc32)cc1` belongs “inactive”.
For the compound `COc1cc2nc(Nc3ccc(N4CCOCC4)cc3)nc(Nc3ccc(OCCN4CCCCC4)cc3)c2cc1OC`, the IC50 is > 17.5 µM (inactive).
To `c1cc(-n2cnc(N3CCOCC3)n2)ccc1Nc1ncc2ccc(-c3cn[nH]n3)cc2n1` belongs > 19.2 µM (inactive); to `COc1ccc(CCNc2nc(Nc3ccc(N4CCOCC4)cc3)ncc2C)cc1`, “inactive”.
To `Fc1cnc(Nc2ccc(N3CCNCC3)cc2)cc1-n1cnc(Nc2ccccc2)n1` belongs > 19.2 µM (inactive); to `CC(C)n1cnc2c(Nc3ccc(N4CCOCC4)cc3)nc(Nc3ccc(-n4ccnc4)cc3)nc21`, > 19.1 µM (inactive).
Regarding `COc1c(-c2cnn(C)c2)ccc2cnc(Nc3ccc(-n4cnc(N5CCOCC5)n4)cc3)nc12`, the IC50 is > 19.2 µM (inactive).
Then `c1ccc(CCn2nc(-c3ccnc(Nc4ccc(N5CCOCC5)cc4)c3)cc2Nc2ccccc2)cc1`, with > 19.2 µM (inactive).
Then `c1ccc(-n2cnc3c(Nc4ccc(N5CCOCC5)cc4)nc(Nc4cccnc4)nc32)cc1`, with > 15.9 µM (inactive); and `COc1cc(NC(=O)c2cccc(-n3cc(NC(=O)Nc4ccc(-c5ccccc5)cc4)cn3)c2)cc(OC)c1OC`, with > 19.2 µM (inactive); and `Cc1nc(C)n(-c2ccc(Nc3nccc(-c4cc(F)cc(-c5ncco5)c4)n3)cc2)n1`, with > 19.2 µM (inactive).
On to `c1ccc(OCCNc2nc(N3CCN(Cc4ccc5c(c4)OCO5)CC3)nc3c2ncn3C2CCCCC2)cc1`, for which the IC50 result is “inactive”.
Then `Cc1cc(Nc2ccc(N3CCOCC3)cc2)nc(Nc2ccccc2)n1`, with “inactive”.
Then `CC(C)n1cnc2c(Nc3ccc(Oc4ccccc4)cc3)nc(N3CCOCC3)nc21`, with “inactive”; and `COc1cc2nc(Nc3nccc4ccccc34)nc(Nc3ccc(N4CCOCC4)cc3)c2cc1OC`, with “inactive”.
As to `c1cc(-n2cnc3c(Nc4ccc5c(c4)OCO5)nc(N4CCN(Cc5ccc6c(c5)OCO6)CC4)nc32)cs1`, the IC50 was > 19.9 µM (inactive).
Then `CN1CCN(c2nc(C3COc4ccccc4O3)nc3ccc(-c4cn[nH]c4)cc23)CC1` (stereo unspecified), with > 19.2 µM (inactive).
Then `c1ccc(-n2cnc3c(NCc4cccnc4)nc(Nc4ccc(N5CCOCC5)cc4)nc32)cc1`, with “inactive”; and `c1ccc(Oc2ccc(Nc3nc(N4CCc5ccccc5C4)nc4c3ncn4-c3ccccc3)cc2)cc1`, with > 20 µM (inactive).
Then `COc1ccc(CCNc2cc(C)nc(Nc3cccc(N(C)C)c3)n2)cc1`, with 6.67 µM; and `CN(C)c1cccc(Nc2nc(NCCc3ccc(O)cc3)c3ncn(Cc4ccc(C(F)(F)F)cc4)c3n2)c1`, with “inactive”.
Regarding `COc1cc2nc(Nc3ccc(N4CCOCC4)cc3)nc(NCc3cccc(C(F)(F)F)c3)c2cc1OC`, the IC50 is > 20.1 µM (inactive).
Consider `COc1ccc(-c2nc(C)cc(Nc3ccc(N4CCOCC4)cc3)n2)cc1`, for which the 50% inhibitory concentration (IC50) was 9.06 µM.
Then `Oc1ccc(CCNc2ncnc3nc(N4CCN(Cc5ccc6c(c5)OCO6)CC4)[nH]c23)cc1`, with > 16.9 µM (inactive); and `COc1cc(Nc2nc(-c3ccc(C(N)=O)cc3)nc3c2ncn3C2CCCCC2)cc(OC)c1OC`, with “inactive”.
To `c1ccc(N2CCN(c3nc(Nc4ccc(N5CCOCC5)cc4)c4ncn(-c5ccsc5)c4n3)CC2)nc1` belongs “inactive”; to `FC(F)(F)c1ccc(Cn2cnc3c(NCc4cccc(C(F)(F)F)c4)nc(Nc4ccc5ncccc5c4)nc32)cc1`, > 19.8 µM (inactive).
Then `Cc1nc(C)n(-c2ccc(Nc3nccc(-c4cccc(-n5cncn5)c4)n3)cc2)n1`, with > 19.2 µM (inactive); and `Cc1cc(NCc2cccc(C(F)(F)F)c2)nc(Nc2cccc(N(C)C)c2)n1`, with > 20.1 µM (inactive).
Take `CCN(CC)c1nc(Nc2ccc3c(c2)OCO3)nc(N2CCC(N3CCOCC3)CC2)n1`: the IC50 result is “inactive”.
To `c1cncc(CNc2nc(Nc3ccc(N4CCOCC4)cc3)nc3c2ncn3C2CCCCC2)c1` belongs > 20.1 µM (inactive); to `COc1cc2nc(Nc3nc4ccccc4n3C)nc(Nc3ccc(N4CCOCC4)cc3)c2cc1OC`, 8.95 µM.
To `CC(=O)c1cccc(-c2nc(NCc3ccccc3)c3ncn(Cc4ccc(C(F)(F)F)cc4)c3n2)c1` belongs > 19.2 µM (inactive); to `COc1cc2nc(Nc3cccc(N(C)C)c3)nc(Nc3ccccc3)c2cc1OC`, “inactive”; to `Cc1cc(NCCOc2ccccc2)nc(Nc2cccc(N(C)C)c2)n1`, 6.99 µM.
Then `FC(F)(F)c1cccc(CNc2nc(Nc3ccc(N4CCOCC4)cc3)nc3c2ncn3-c2ccsc2)c1`, with 8.62 µM.
On to `CC(C)NC(=O)c1cccc(NC(=O)Nc2ccc(-c3ccnc4[nH]ccc34)cc2)c1`, for which the IC50 was > 19.2 µM (inactive).
For the compound `Cc1cccc(Nc2ccc3c(cnn3-c3cccc(C(=O)NCCN4CCNCC4)c3)c2)c1Cl`, the IC50 was > 19.2 µM (inactive).
`Cc1cnc(Nc2nc3ccccc3n2C)nc1Nc1ccc(N2CCOCC2)cc1`: the IC50 is > 21.8 µM (inactive).
In the case of `FC(F)(F)c1ccc(Cn2cnc3c(NC4CCN(Cc5ccccc5)CC4)nc(Nc4ccc(N5CCOCC5)cc4)nc32)cc1`, the IC50 entry is “inactive”.
Regarding `CC(C)n1cnc2c(Nc3ccc(N4CCOCC4)cc3)nc(N3CCN(Cc4ccc5c(c4)OCO5)CC3)nc21`, the IC50 result is “inactive”.
Regarding `Nc1nc(Nc2ccc(N3CCOCC3)cc2)cc(NC2CCN(Cc3ccccc3)CC2)n1`, the IC50 was > 23.1 µM (inactive).
To `CN1CCN(c2ncn(-c3ccc(Nc4nccc(-c5cc(C#N)cc(N6CCC(O)CC6)c5)n4)cc3)n2)CC1` belongs > 19.2 µM (inactive); to `Cc1cc(NC2CCN(Cc3ccccc3)CC2)nc(Nc2ccc(N3CCOCC3)cc2)n1`, “inactive”; to `c1ccc(CN2CCC(Nc3ccnc(Nc4ccc(N5CCOCC5)cc4)n3)CC2)cc1`, “inactive”.

(Values after PubChem BioAssay AID1159605 (The Scripps Research Institute Molecular Screening Center, 2016).)
